Results as given in PMC8245910 (Acta Pharmaceutica Sinica. B, 2021).

Columns and labels:
MDR1 = MDR1 (Homo sapiens, UniProt P08183); conditions: cited from earlier work
wild-type TF-1 = experiment: 2-HG reducing assay in cell; assay type: cell-based
BCRP = target: T1, BCRP (Homo sapiens, UniProt Q9UNQ0); conditions: cited from earlier work
T1 sequence (Q9UNQ0 1-655): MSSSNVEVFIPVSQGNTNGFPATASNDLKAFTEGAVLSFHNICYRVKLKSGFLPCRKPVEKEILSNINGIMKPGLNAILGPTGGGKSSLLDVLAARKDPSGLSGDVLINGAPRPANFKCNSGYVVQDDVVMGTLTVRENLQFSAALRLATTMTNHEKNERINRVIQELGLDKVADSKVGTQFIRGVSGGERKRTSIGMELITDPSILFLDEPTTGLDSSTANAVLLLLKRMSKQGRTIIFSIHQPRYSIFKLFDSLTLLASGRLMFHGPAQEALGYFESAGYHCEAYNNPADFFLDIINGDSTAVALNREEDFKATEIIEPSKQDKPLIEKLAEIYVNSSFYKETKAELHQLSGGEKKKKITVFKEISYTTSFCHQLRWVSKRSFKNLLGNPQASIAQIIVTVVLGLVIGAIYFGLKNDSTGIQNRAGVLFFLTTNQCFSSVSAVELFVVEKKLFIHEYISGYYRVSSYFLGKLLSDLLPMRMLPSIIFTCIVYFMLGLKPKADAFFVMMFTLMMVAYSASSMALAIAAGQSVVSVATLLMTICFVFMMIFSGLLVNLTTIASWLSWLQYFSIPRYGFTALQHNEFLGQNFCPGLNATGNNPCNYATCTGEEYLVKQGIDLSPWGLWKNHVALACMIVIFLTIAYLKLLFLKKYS

[1] = SD rats; cited from earlier work

Sequence of MDR1 (P08183 whole entry): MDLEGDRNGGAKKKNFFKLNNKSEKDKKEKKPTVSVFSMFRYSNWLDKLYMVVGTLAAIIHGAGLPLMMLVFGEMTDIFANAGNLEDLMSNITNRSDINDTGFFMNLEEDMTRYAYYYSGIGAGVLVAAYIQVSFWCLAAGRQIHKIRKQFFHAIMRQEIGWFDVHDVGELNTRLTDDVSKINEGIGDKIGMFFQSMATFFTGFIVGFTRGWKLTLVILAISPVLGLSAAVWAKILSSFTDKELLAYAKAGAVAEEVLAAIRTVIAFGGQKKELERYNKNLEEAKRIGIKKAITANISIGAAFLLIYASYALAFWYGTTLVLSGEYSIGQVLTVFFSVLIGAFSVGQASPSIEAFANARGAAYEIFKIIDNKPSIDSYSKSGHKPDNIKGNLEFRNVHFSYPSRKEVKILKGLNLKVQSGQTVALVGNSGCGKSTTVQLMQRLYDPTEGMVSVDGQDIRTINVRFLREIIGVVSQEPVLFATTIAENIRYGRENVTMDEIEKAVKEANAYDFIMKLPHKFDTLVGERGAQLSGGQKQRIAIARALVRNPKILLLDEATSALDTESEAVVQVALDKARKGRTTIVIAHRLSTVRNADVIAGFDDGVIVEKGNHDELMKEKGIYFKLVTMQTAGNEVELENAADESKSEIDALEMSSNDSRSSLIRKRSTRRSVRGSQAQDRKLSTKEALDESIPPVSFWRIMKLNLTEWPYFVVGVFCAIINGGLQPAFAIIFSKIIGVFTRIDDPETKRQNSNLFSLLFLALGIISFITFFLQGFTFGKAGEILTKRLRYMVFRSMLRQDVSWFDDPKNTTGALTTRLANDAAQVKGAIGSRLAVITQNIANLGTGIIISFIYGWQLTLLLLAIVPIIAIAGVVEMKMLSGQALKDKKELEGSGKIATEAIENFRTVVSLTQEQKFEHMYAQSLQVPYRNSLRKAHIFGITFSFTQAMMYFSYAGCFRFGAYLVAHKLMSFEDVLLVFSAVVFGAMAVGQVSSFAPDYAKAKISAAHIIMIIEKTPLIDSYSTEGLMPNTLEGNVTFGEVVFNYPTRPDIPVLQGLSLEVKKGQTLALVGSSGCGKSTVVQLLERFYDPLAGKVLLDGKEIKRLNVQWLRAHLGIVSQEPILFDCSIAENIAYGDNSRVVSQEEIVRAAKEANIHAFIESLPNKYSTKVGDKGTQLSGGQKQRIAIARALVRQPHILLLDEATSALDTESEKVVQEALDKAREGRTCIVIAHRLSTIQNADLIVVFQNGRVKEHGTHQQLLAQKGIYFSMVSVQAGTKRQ

Compound: CC(C)(O)CNc1nc(Nc2ccnc(C(F)(F)F)c2)nc(-c2cccc(C(F)(F)F)n2)n1 [AG-221, Enasidenib]
- inhibition of MDR1 (MDR1): strong inhibitor
- overall concentration of 2-HG (wild-type TF-1): did not change significantly
- inhibition of BCRP (BCRP): strong inhibitor
- prototype drug in the excrement, share of the total drugs [1]: about 50%
- prototype products and metabolites excreted in feces [1]: > 90%
